# Source: patent US20100215653A1, “METHODS OF TREATING NEOPLASTIC, AUTOIMMUNE AND INFLAMMATORY DISEASES” (Seattle Genetics, Inc., priority 2006, published 2010)
# pKd: −log10 of the molar value.
# Key:
# [1] = tested on: HEL 92.1.7 cells; experiment: Complement-dependent cytotoxicity (CDC) activity; format: cell-based, human; conditions: HEL 92.1.7 cells preincubated 2 hours with drug before HuM195
# Protocol: The purpose of this study was to determine whether the cytotoxic effects of an anti-CD33 antibody (HuM195) on AML cells could be enhanced by combination treatment with chemotherapeutic drugs. An MDR^+, CD33-positive AML cell line (HEL 92.1.7) was either untreated or preincubated with the indicated concentrations of thalidomide or 5-azacytidine for two hours prior to exposure to the anti-CD33 Ab. Cytotoxic activity was measured using a complement-dependent cytotoxicity (CDC) activity.
# [2] = tested on: primary human macrophages; experiment: Macrophage migration in response to chemoattractants (CytoSelect Cell Migration Assay); format: cell-based; conditions: 10% human serum or 20% conditioned media from RPMI 8226 cells; p<0.05 (FIG. 21)
# Protocol: (§1) The migration of macrophages in response to challenge with plating media containing 10% human serum, 20% conditioned tumor cell media, or 50 ng/ml TGF-β, VEGF, TNF-α, or IFN-γ was evaluated using the CytoSelect Cell Migration Assay (Cell Biolabs, San Diego, Calif.). […] The study was stopped 18 hours later and migration was evaluated after dissociation of the cells from the membrane followed by detection with Cyquant GR dye.
# as §1, with “serum or” for “serum,”, “media” for “media, or 50 ng/ml TGF-β, VEGF, TNF-α, or IFN-γ”, “studies were” for “study was”, “h” for “hours”
# [3] = Effector function (ADCC or CDC activity), data not shown; format: cell-based
# [4] = target: T1, CD33 (Homo sapiens, UniProt P20138); experiment: Recruitment of SHP-1 / SHP-2 / Syk to CD33 (CD33 immunoprecipitation, Western blot); format: cell-based; design: endogenous in cells; host or cells: HL-60, U937; primary human CD14+ monocytes and PBMC-derived macrophages; conditions: HL-60 and monocytes; 30 minutes (FIG. 16)
# Protocol: To determine whether the humanized M195 antibody also recruits SHP phosphatases, HL-60 cells were treated with soluble or cross-linked anti-CD33 antibodies. Cell extracts were prepared and CD33 was immunoprecipitated with an anti-CD33 antibody (MY9 clone). Western blotting was performed with an anti-SHP-1 antibody (sc-287; Santa Cruz Biotechnology, Inc., Santa Cruz, Calif.).
# (§2) To prepare deglycosylated SGN-33, the antibody was treated with PN-glycosidase F (New England BioLabs, Ipswich, Mass.). Deglycosylation was confirmed by CE-SDS. […] Cell lysates were prepared and CD33 immunoprecipitated using an anti-CD33 rabbit polyclonal antibody (Santa Cruz Biotechnology, Santa Cruz, Calif.) prior to SDS PAGE gel electrophoresis. Western blot analyses of these samples were performed using the 4G10 phosphotyrosine antibody (Upstate Biotechnology, Temucula, Calif.), anti-CD33 antibody (NovoCastra, Norwell, Mass.), and anti-SHP-1 antibody (Calbiochem, San Diego, Calif.). Control lysate for SHP-1 was prepared from a B cell lymphoma cell line.
# [5] = target: T1, CD33; experiment: CD33 tyrosine phosphorylation (CD33 immunoprecipitation, anti-phosphotyrosine Western blot); format: cell-based; design: endogenous in cells; host or cells: HL-60, U937; primary human CD14+ monocytes and PBMC-derived macrophages; conditions: HL-60 AML cells (FIG. 16)
# Protocol: CD33-positive cell lines were treated with anti-CD33 antibodies (lintuzumab and certain commercially available antibodies). Cell extracts were prepared and CD33 was immunoprecipitated using an anti-CD33 antibody (MY9 clone; Beckman Coulter, Calif.). Western blotting was performed with an anti-phosphotyrosine antibody (4G10; Upstate Biotechnologies, Inc., Lake Placid, N.Y.).
# as §2, with “Deglycosylation” for “To prepare deglycosylated SGN-33, the antibody was treated with PN-glycosidase F (New England BioLabs, Ipswich, Mass.). Deglycosylation”
# [6] = tested on: HL-60 cells; experiment: HL-60 disseminated AML model in mice; format: in vivo; conditions: low doses of cytarabine alone (FIG. 22)
# Protocol: Mice were implanted with an AML cell line, HL-60, as follows: 5 million HL-60 cells were injected intravenously. The mice were treated with lintuzumab (10 mg/kg, q4dx4, ip), cytarabine (1 mg/kg, 5 mg/kg or 25 mg/kg, q1dx10, ip; or 50 mg/kg or 100 mg/kg, q2dx5, ip) or lintuzumab with cytarabine (dosed as described previously). Treatment began on day one. Referring to FIG. 22, the control mice or mice treated with placebo (0.9% saline) were removed from the study by day 80, due to tumor progression.
# To confirm the data of the in vitro study, mice were implanted with an AML cell line, HL-60, as follows: 5 million HL-60 cells were injected intravenously. […] Treatment began on day one. Referring to FIG. 24, the control mice were removed from the study by about day 60 due to tumor progression. Mice treated with lenalidomide were removed from study by about day 90 for similar reasons.
# The MDR-negative HL60 cell line and the MDR-positive HEL9217 and TF1-α cell lines were used. […] Disease symptoms typically developed between about 35 and about 80 days, and included hind limb paralysis, scruffy coat, weight loss, palpable tumors, and/or tumor masses in bone, peritoneal cavity, or soft tissues. Human CD33+ tumor cells were detected in the blood, bone marrow, and lymph nodes of the majority of the mice by flow cytometry (FIG. 25). Solid tumors associated with bone or soft tissues were found in 20 to 60% of the mice.
# [7] = target: CD33 on human cells (AML cell lines HL60, KG-1, HEL9217, TF1-alpha, U937; primary human monocytes and macrophages) (human) (UniProt P20138); experiment: apparent Kd, saturation binding by flow cytometry on HL60 cells
# [8] = target: CD33 on human cells (AML cell lines HL60, KG-1, HEL9217, TF1-alpha, U937; primary human monocytes and macrophages) (human) (UniProt P20138); experiment: apparent Kd, saturation binding by flow cytometry on KG-1 cells
# [9] = target: CD33 on human cells (AML cell lines HL60, KG-1, HEL9217, TF1-alpha, U937; primary human monocytes and macrophages) (human) (UniProt P20138); experiment: apparent Kd, saturation binding by flow cytometry on TF1-alpha cells
# [10] = target: CD33 on human cells (AML cell lines HL60, KG-1, HEL9217, TF1-alpha, U937; primary human monocytes and macrophages) (human) (UniProt P20138); experiment: apparent Kd, saturation binding by flow cytometry on HEL9217 cells
# [11] = tested on: AML tumor cells (KG-1 HEL9217, and TF1α); experiment: ADCC, 51Cr release assay with NK effector cells; format: cell-based, human; conditions: NK cells pre-treated 2 to 3 h with drug before addition to target cells (FIG. 23)
# Protocol: Target AML tumor cells (KG-1 HEL9217, and TF1α) were labeled with Na^51CrO4 and mixed with enriched CD16^+ effector (NK) cells, prepared using PBMCs from normal donors. The effector to target cell ratio was 10:1. […] Macrophages were labeled with CD11b−FITC or CD14-FITC antibody. Flow cytometric analyses of dual labeled (PKH67+CD11b+ or PKH67+CD14+) cells was used to determine specific uptake (phagocytosis). […] Media were collected 18 h later and analyzed by ELISA for IL-8 or MCP-1.
# Viable NK cells were pre-treated for 2 to 3 h with lenalidomide or thalidomide (as described in FIG. 23) prior to addition to target cells.
# Sequence of CD33 on human cells (AML cell lines HL60, KG-1, HEL9217, TF1-alpha, U937; primary human monocytes and macrophages) (human) (P20138 18-364): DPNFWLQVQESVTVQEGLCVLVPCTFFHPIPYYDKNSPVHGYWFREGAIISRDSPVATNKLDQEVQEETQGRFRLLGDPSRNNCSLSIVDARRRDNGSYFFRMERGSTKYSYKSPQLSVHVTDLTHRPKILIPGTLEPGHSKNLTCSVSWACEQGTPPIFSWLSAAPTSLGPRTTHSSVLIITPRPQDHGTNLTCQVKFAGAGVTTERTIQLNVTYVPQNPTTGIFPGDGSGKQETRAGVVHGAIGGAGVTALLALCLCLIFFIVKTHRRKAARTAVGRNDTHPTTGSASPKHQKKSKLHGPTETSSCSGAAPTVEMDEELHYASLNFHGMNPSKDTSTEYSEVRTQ
# T1 sequence (P20138 18-364): as above
molecule,measurement,setting,value
Nc1ncn([C@@H]2O[C@H](CO)[C@@H](O)[C@H]2O)c(=O)n1 [5-azacytidine],sensitivity to HuM195-mediated CDC activity after preincubation with drug,[1],enhanced the sensitivity
deglycosylated SGN-33: SGN-33 treated with PN-glycosidase F; does not interact with Fc receptors,macrophage migration,[2],significantly reduced the migration
same,"effector function, including ADCC or CDC activity",[3],did not mediate effector function
same,recruitment of SHP-1 to the CD33 complex,[4],resulted in recruitment of SHP-1 to the CD33 complex
same,phosphorylation of CD33,[5],induced phosphorylation of CD33
"Nc1ccn([C@@H]2O[C@H](CO)[C@@H](O)[C@@H]2O)c(=O)n1 [cytarabine, reference compound]",percent survival rates compared to untreated controls,[6],increasing percent survival rates
"SGN-33, humanized M195 anti-CD33 antibody",pKd,[7],9.91
same,pKd,[8],10.15
same,pKd,[9],10.00
same,pKd,[10],9.84
"O=C1CCC(N2C(=O)c3ccccc3C2=O)C(=O)N1 (stereo not shown) [thalidomide, reference compound]",sensitivity to HuM195-mediated CDC activity after preincubation with drug,[1],enhanced the sensitivity
same,effect on SGN-33 mediated ADCC,[11],enhanced SGN-33 mediated ADCC
"Nc1cccc2c1CN(C1CCC(=O)NC1=O)C2=O (stereo not shown) [lenalidomide, reference compound]",effect on SGN-33 mediated ADCC,[11],enhanced SGN-33 mediated ADCC
